# Measurements taken from patent publication EP4667483A1, “HUMAN TRANSFERRIN RECEPTOR-BINDING PEPTIDE” (JCR Pharmaceuticals Co., Ltd., priority 2023, dated 2024).
# Numbered stars: 1 amine (or outer) side, 2 acyl side, 3 side chain; on linkers, the order of the positions; unused ones are H or OH. Bridge positions count the residues as written; N and C are the ends. Square brackets hold non-standard residues; d marks the D form. Peptide text beside a SMILES is read from it. * marks the point of attachment. Ala(imidazo(1,2-a)pyr3yl) = N[C@@H](Cc1cnc2ccccn12)C(=O)O; Trp(1-CH2COOH) = N[C@@H](Cc1cn(CC(=O)O)c2ccccc12)C(=O)O; Nle(6-morpholino) = N[C@@H](CCCCN1CCOCC1)C(=O)O; Phe(3-COOH) = N[C@@H](Cc1cccc(C(=O)O)c1)C(=O)O; NMePhe(3-OMe) = CN[C@@H](Cc1cccc(OC)c1)C(=O)O; Trp(7-aza) = N[C@@H](Cc1c[nH]c2ncccc12)C(=O)O; NMePhe(3-Cl) = CN[C@@H](Cc1cccc(Cl)c1)C(=O)O; 3Pal(6-OMe) = COc1ccc(C[C@H](N)C(=O)O)cn1; 3Pal(6-NH2) = Nc1ccc(C[C@H](N)C(=O)O)cn1; X3 = Cc1ccc(C[C@H](N[*:1])C(=O)[*:2])cn1; Lys(N3) = [N-]=[N+]=NCCCC[C@H](N)C(=O)O; Tyr(3-Me) = Cc1cc(C[C@H](N)C(=O)O)ccc1O; NMe4Pal = CN[C@@H](Cc1ccncc1)C(=O)O; NMeY = CN[C@@H](Cc1ccc(O)cc1)C(=O)O; Nva(3-Et) = CCC(CC)[C@H](N)C(=O)O; 4Pal = N[C@@H](Cc1ccncc1)C(=O)O; PEG4 = NCCOCCOCCOCCOCCC(=O)O; Carboxymethyl = O=C(O)C*
# Legend:
# [1] = molecular target: T1, human transferrin receptor (hTfR) (Homo sapiens, UniProt P02786); test: SPR measurement under pH 7.4 conditions (Biacore T200, CM3 chip, hTfR captured by His Tag antibody); format: binding; conditions: read-out: hTfR SPR pH7.4 KD
# [2] = molecular target: T1, human transferrin receptor (hTfR); test: SPR measurement under pH 6.0 conditions (Biacore T200, NTA chip, immobilized hTfR); format: binding; conditions: read-out: hTfR SPR pH6.0 KD
# [3] = SPR, pH 7.4, peptide with the linker named in the table
# [4] = SPR, pH 6.0, peptide with the linker named in the table
# T1 sequence (P02786 whole entry): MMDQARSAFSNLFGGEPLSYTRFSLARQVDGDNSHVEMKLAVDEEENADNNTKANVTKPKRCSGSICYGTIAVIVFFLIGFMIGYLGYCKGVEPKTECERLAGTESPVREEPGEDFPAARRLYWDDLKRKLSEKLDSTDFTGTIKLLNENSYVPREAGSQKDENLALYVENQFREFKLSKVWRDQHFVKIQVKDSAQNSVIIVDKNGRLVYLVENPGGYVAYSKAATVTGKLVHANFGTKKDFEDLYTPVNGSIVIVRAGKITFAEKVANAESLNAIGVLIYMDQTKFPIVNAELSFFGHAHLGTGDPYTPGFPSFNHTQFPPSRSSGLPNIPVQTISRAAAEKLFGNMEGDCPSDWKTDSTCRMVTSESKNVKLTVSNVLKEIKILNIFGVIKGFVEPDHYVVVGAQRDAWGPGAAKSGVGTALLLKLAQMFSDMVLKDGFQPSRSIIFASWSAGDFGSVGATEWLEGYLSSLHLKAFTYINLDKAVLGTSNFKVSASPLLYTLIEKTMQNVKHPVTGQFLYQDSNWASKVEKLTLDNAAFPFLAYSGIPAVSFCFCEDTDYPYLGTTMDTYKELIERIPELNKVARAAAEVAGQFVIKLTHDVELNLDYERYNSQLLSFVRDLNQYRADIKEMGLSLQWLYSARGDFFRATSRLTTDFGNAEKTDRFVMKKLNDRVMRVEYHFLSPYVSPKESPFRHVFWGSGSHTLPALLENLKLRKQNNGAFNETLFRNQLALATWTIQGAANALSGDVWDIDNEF
"Kd ([1]; pH 7.4, single-cycle kinetics) [nM]","Kd ([2]; pH 6.0, single-cycle kinetics) [nM]","Kd [1, 3] [nM]","Kd [2, 4] [nM]",Structure (SMILES)
–,–,18.2,91.9,CCC(CC)[C@@H]1NC(=O)[C@H](Cc2ccc(OCC(=O)O)cc2)NC(=O)[C@H](Cc2ccc(O)cc2)NC(=O)[C@H](CC(N)=O)NC(=O)[C@H](Cc2cn(CC(=O)O)c3ccccc23)NC(=O)[C@H](C(C)C)NC(=O)[C@H](Cc2cccc(Cl)c2)N(C)C(=O)[C@H](C(C)C)NC(=O)[C@H](C)NC(=O)CSC[C@@H](C(=O)NCCOCCOCCOCCOCCC(N)=O)NC(=O)[C@H](Cc2ccncc2)N(C)C(=O)[C@H](Cc2cccc(C(=O)O)c2)NC(=O)[C@H](CCCNC(=N)N)NC(=O)[C@H](CCC(N)=O)NC(=O)[C@H]([C@@H](C)CC)NC1=O [compound 96] ({CH2CO}-AV[NMePhe(3-Cl)]V[Trp(1-CH2COOH)]NYY(Carboxymethyl)[Nva(3-Et)]IQR[Phe(3-COOH)][NMe4Pal]C[PEG4]-NH2; thioether N-15)
–,–,20.6,145,CCC(CC)[C@@H]1NC(=O)[C@H](Cc2ccc(OCC(=O)O)cc2)NC(=O)[C@H](Cc2ccc(O)cc2)NC(=O)[C@H](CC(N)=O)NC(=O)[C@H](Cc2cn(CC(=O)O)c3ccccc23)NC(=O)[C@H](C(C)C)NC(=O)[C@H](Cc2cccc(Cl)c2)N(C)C(=O)[C@H](C(C)C)NC(=O)[C@H](C)NC(=O)CSC[C@@H](C(=O)NCCOCCOCCOCCOCCC(N)=O)NC(=O)[C@H](Cc2ccc(O)cc2)N(C)C(=O)[C@H](Cc2cccc(C(=O)O)c2)NC(=O)[C@H](Cc2c[nH]cn2)NC(=O)[C@H](CCC(N)=O)NC(=O)[C@H]([C@@H](C)CC)NC1=O [compound 98] ({CH2CO}-AV[NMePhe(3-Cl)]V[Trp(1-CH2COOH)]NYY(Carboxymethyl)[Nva(3-Et)]IQH[Phe(3-COOH)][NMeY]C[PEG4]-NH2; thioether N-15)
–,–,9.08,56.2,CCC(CC)[C@@H]1NC(=O)[C@H](Cc2ccc(OCC(=O)O)cc2)NC(=O)[C@H](Cc2ccc(O)cc2)NC(=O)[C@H](CC(N)=O)NC(=O)[C@H](Cc2cn(CC(=O)O)c3ccccc23)NC(=O)[C@H](C(C)C)NC(=O)[C@H](Cc2cccc(Cl)c2)N(C)C(=O)[C@H](C(C)C)NC(=O)[C@H](C)NC(=O)CSC[C@@H](C(=O)NCCOCCOCCOCCOCCC(N)=O)NC(=O)[C@H](Cc2ccc(O)cc2)N(C)C(=O)[C@H](Cc2ccc(O)c(C)c2)NC(=O)[C@H](CCCNC(=N)N)NC(=O)[C@H](CCC(N)=O)NC(=O)[C@H]([C@@H](C)CC)NC1=O [compound 99] ({CH2CO}-AV[NMePhe(3-Cl)]V[Trp(1-CH2COOH)]NYY(Carboxymethyl)[Nva(3-Et)]IQR[Tyr(3-Me)][NMeY]C[PEG4]-NH2; thioether N-15)
–,–,12.7,113,CCC(CC)[C@@H]1NC(=O)[C@H](Cc2ccc(OCC(=O)O)cc2)NC(=O)[C@H](Cc2ccc(O)cc2)NC(=O)[C@H](CC(N)=O)NC(=O)[C@H](Cc2cn(CC(=O)O)c3ccccc23)NC(=O)[C@H](C(C)C)NC(=O)[C@H](Cc2cccc(Cl)c2)N(C)C(=O)[C@H](C(C)C)NC(=O)[C@H](C)NC(=O)CSC[C@@H](C(=O)NCCOCCOCCOCCOCCC(N)=O)NC(=O)[C@H](Cc2ccc(O)cc2)N(C)C(=O)[C@H](Cc2ccc(C)nc2)NC(=O)[C@H](CCCNC(=N)N)NC(=O)[C@H](CCC(N)=O)NC(=O)[C@H]([C@@H](C)CC)NC1=O [compound 100] ({CH2CO}-AV[NMePhe(3-Cl)]V[Trp(1-CH2COOH)]NYY(Carboxymethyl)[Nva(3-Et)]IQR[X3][NMeY]C[PEG4]-NH2; thioether N-15)
–,–,8.63,66.7,CCC(CC)[C@@H]1NC(=O)[C@H](Cc2ccc(OCC(=O)O)cc2)NC(=O)[C@H](Cc2ccc(O)cc2)NC(=O)[C@H](CC(N)=O)NC(=O)[C@H](Cc2cn(CC(=O)O)c3ccccc23)NC(=O)[C@H](C(C)C)NC(=O)[C@H](Cc2cccc(Cl)c2)N(C)C(=O)[C@H](C(C)C)NC(=O)[C@H](C)NC(=O)CSC[C@@H](C(=O)NCCOCCOCCOCCOCCC(N)=O)NC(=O)[C@H](Cc2ccc(O)cc2)N(C)C(=O)[C@H](Cc2ccc(OC)nc2)NC(=O)[C@H](CCCNC(=N)N)NC(=O)[C@H](CCC(N)=O)NC(=O)[C@H]([C@@H](C)CC)NC1=O [compound 101] ({CH2CO}-AV[NMePhe(3-Cl)]V[Trp(1-CH2COOH)]NYY(Carboxymethyl)[Nva(3-Et)]IQR[3Pal(6-OMe)][NMeY]C[PEG4]-NH2; thioether N-15)

# Continued, compound first:
Structure (SMILES),"Kd ([1]; pH 7.4, single-cycle kinetics) [nM]","Kd ([2]; pH 6.0, single-cycle kinetics) [nM]","Kd [1, 3] [nM]","Kd [2, 4] [nM]"
CC[C@H](C)[C@@H]1NC(=O)[C@H](Cc2ccc(OCC(=O)O)cc2)NC(=O)[C@H](Cc2ccc(O)cc2)NC(=O)[C@H](CC(N)=O)NC(=O)[C@H](Cc2c[nH]c3ncccc23)NC(=O)[C@H](C(C)C)NC(=O)[C@H](Cc2cccc(Cl)c2)N(C)C(=O)[C@H](C(C)C)NC(=O)[C@H](C)NC(=O)CSC[C@@H](C(=O)NCCOCCOCCOCCOCCC(N)=O)NC(=O)[C@H](Cc2ccc(O)cc2)N(C)C(=O)[C@H](Cc2ccncc2)NC(=O)[C@H](CCCNC(=N)N)NC(=O)[C@H](CCC(=O)NCCOCCOCCOCCOCCC(=O)O)NC(=O)[C@H]([C@@H](C)CC)NC1=O [compound 63],23.6,87.7,–,–
"CC[C@H](C)[C@@H]1NC(=O)[C@H](Cc2ccc(OC)cc2)NC(=O)[C@H](Cc2ccc(N)nc2)NC(=O)[C@H](CC(N)=O)NC(=O)[C@H](Cc2cnc3ccccn23)NC(=O)[C@H](C(C)C)NC(=O)[C@H](Cc2cccc(Cl)c2)N(C)C(=O)[C@H](C(C)C)NC(=O)[C@H](C)NC(=O)CSC[C@@H](C(=O)NCCOCCOCCOCCOCCC(N)=O)NC(=O)[C@H](Cc2ccc(O)cc2)N(C)C(=O)[C@H](Cc2ccncc2)NC(=O)[C@H](CCCNC(=N)N)NC(=O)[C@H](CCCNC(=N)N)NC(=O)[C@H]([C@@H](C)CC)NC1=O [compound 65] ({CH2CO}-AV[NMePhe(3-Cl)]V[Ala(imidazo(1,2-a)pyr3yl)]N[3Pal(6-NH2)]Y(Me)IIRR[4Pal][NMeY]C[PEG4]-NH2; thioether N-15)",5.43,56.5,–,–
CC[C@H](C)[C@@H]1NC(=O)[C@H](Cc2ccc(OC)cc2)NC(=O)[C@H](Cc2ccc(N)nc2)NC(=O)[C@H](CC(N)=O)NC(=O)[C@H](Cc2c[nH]c3ncccc23)NC(=O)[C@H](C(C)C)NC(=O)[C@H](Cc2cccc(Cl)c2)N(C)C(=O)[C@H](C(C)C)NC(=O)[C@H](C)NC(=O)CSC[C@@H](C(=O)NCC(=O)N[C@@H](CCCCN=[N+]=[N-])C(N)=O)NC(=O)[C@H](Cc2ccc(O)cc2)N(C)C(=O)[C@H](Cc2ccncc2)NC(=O)[C@H](CCCNC(=N)N)NC(=O)[C@H](CCCNC(=N)N)NC(=O)[C@H]([C@@H](C)CC)NC1=O [compound 66],2.27,16.1,–,–
"CCC(CC)[C@@H]1NC(=O)[C@H](Cc2ccc(OCC(=O)O)cc2)NC(=O)[C@H](Cc2ccc(O)cc2)NC(=O)[C@H](CC(N)=O)NC(=O)[C@H](Cc2cnc3ccccn23)NC(=O)[C@H](C(C)C)NC(=O)[C@H](Cc2cccc(Cl)c2)N(C)C(=O)[C@H](C(C)C)NC(=O)[C@H](C)NC(=O)CSC[C@@H](C(=O)NCC(=O)N[C@@H](CCCCN=[N+]=[N-])C(N)=O)NC(=O)[C@H](Cc2ccc(O)cc2)N(C)C(=O)[C@H](Cc2cccc(C(=O)O)c2)NC(=O)[C@H](CCCNC(=N)N)NC(=O)[C@H](CCC(N)=O)NC(=O)[C@H]([C@@H](C)CC)NC1=O [compound 67] ({CH2CO}-AV[NMePhe(3-Cl)]V[Ala(imidazo(1,2-a)pyr3yl)]NYY(Carboxymethyl)[Nva(3-Et)]IQR[Phe(3-COOH)][NMeY]CG[Lys(N3)]-NH2; thioether N-15)",21.6,444,–,–
CC[C@H](C)[C@@H]1NC(=O)[C@H](Cc2ccc(OC)cc2)NC(=O)[C@H](Cc2ccc(N)nc2)NC(=O)[C@H](CC(N)=O)NC(=O)[C@H](Cc2c[nH]c3ncccc23)NC(=O)[C@H](C(C)C)NC(=O)[C@H](Cc2cccc(Cl)c2)N(C)C(=O)[C@H](C(C)C)NC(=O)[C@H](C)NC(=O)CSC[C@@H](C(=O)NCC(=O)N[C@@H](CCCCN=[N+]=[N-])C(N)=O)NC(=O)[C@H](Cc2ccc(O)cc2)N(C)C(=O)[C@H](Cc2ccncc2)NC(=O)[C@H](CCCCN2CCOCC2)NC(=O)[C@H](CCCCN2CCOCC2)NC(=O)[C@H]([C@@H](C)CC)NC1=O [compound 68] ({CH2CO}-AV[NMePhe(3-Cl)]V[Trp(7-aza)]N[3Pal(6-NH2)]Y(Me)II[Nle(6-morpholino)][Nle(6-morpholino)][4Pal][NMeY]CG[Lys(N3)]-NH2; thioether N-15),2.06,12.4,–,–
CCC(CC)[C@@H]1NC(=O)[C@H](Cc2ccc(OCC(=O)O)cc2)NC(=O)[C@H](Cc2ccc(O)cc2)NC(=O)[C@H](CC(N)=O)NC(=O)[C@H](Cc2cn(CC(=O)O)c3ccccc23)NC(=O)[C@H](C(C)C)NC(=O)[C@H](Cc2cccc(Cl)c2)N(C)C(=O)[C@H](C(C)C)NC(=O)[C@H](C)NC(=O)CSC[C@@H](C(=O)NCCOCCOCCOCCOCCC(N)=O)NC(=O)[C@H](Cc2cccc(Cl)c2)N(C)C(=O)[C@H](Cc2cccc(C(=O)O)c2)NC(=O)[C@H](CCCNC(=N)N)NC(=O)[C@H](CCC(N)=O)NC(=O)[C@H]([C@@H](C)CC)NC1=O [compound 94] ({CH2CO}-AV[NMePhe(3-Cl)]V[Trp(1-CH2COOH)]NYY(Carboxymethyl)[Nva(3-Et)]IQR[Phe(3-COOH)][NMePhe(3-Cl)]C[PEG4]-NH2; thioether N-15),–,–,12,62
CCC(CC)[C@@H]1NC(=O)[C@H](Cc2ccc(OCC(=O)O)cc2)NC(=O)[C@H](Cc2ccc(O)cc2)NC(=O)[C@H](CC(N)=O)NC(=O)[C@H](Cc2cn(CC(=O)O)c3ccccc23)NC(=O)[C@H](C(C)C)NC(=O)[C@H](Cc2cccc(Cl)c2)N(C)C(=O)[C@H](C(C)C)NC(=O)[C@H](C)NC(=O)CSC[C@@H](C(=O)NCCOCCOCCOCCOCCC(N)=O)NC(=O)[C@H](Cc2cccc(OC)c2)N(C)C(=O)[C@H](Cc2cccc(C(=O)O)c2)NC(=O)[C@H](CCCNC(=N)N)NC(=O)[C@H](CCC(N)=O)NC(=O)[C@H]([C@@H](C)CC)NC1=O [compound 95] ({CH2CO}-AV[NMePhe(3-Cl)]V[Trp(1-CH2COOH)]NYY(Carboxymethyl)[Nva(3-Et)]IQR[Phe(3-COOH)][NMePhe(3-OMe)]C[PEG4]-NH2; thioether N-15),–,–,10.6,67.9
